Results on seven molecules are retold here after patent EP4656654A1, “SOMATOSTATIN PEPTIDE ANALOGUE, CHELATE AND USE THEREOF” (Qianhangjiang Pharmaceutical Co., Ltd., priority 2023, dated 2025).

Read-outs that look alike come from different tables or passages of the source. Numbered stars: 1 amine (or outer) side, 2 acyl side, 3 side chain; on linkers, the order of the positions; unused ones are H or OH. Bridge positions count the residues as written; N and C are the ends. Square brackets hold non-standard residues; d marks the D form. Peptide text beside a SMILES is read from it. * marks the point of attachment. Phe(3-CH2NH2) = O=C([C@H](Cc1cccc(CN[*:3])c1)N[*:1])[*:2]; DOTA = O=C(O)CN1CCN(CC(=O)O)CCN(CC(=O)*)CCN(CC(=O)O)CC1; X2 = CC(C)(CN)CC[C@H](N[*:1])C(=O)[*:2]; X1 = CC(CN)CC[C@H](N[*:1])C(=O)[*:2]; Thr(ol) = C[C@@H](O)[C@H](N)CO

The target in the assay is T1, SSTR2 (Homo sapiens, UniProt P30874).
T1 construct: host or cells: CHO-K1
T1 sequence (P30874 whole entry): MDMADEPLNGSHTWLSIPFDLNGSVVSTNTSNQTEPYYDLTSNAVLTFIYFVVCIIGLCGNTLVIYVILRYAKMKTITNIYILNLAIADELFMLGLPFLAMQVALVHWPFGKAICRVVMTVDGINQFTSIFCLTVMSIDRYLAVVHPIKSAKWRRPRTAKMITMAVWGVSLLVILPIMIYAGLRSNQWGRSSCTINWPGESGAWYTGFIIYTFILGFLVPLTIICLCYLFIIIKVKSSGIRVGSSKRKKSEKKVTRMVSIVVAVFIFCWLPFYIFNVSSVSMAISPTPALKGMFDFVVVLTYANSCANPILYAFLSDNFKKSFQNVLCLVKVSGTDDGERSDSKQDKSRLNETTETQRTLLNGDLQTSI
Briefly: competitive radioligand binding assay (125I-Tyr11-Somatostatin-14) on membranes of SSTR2-overexpressing CHO-K1 cells. The note with it: for Bottom: parameter A, bottom of fitted % Effect curve; for Top: parameter B, top of fitted % Effect curve; for Hill slope: parameter D of fitted curve; for EC50: radioligand 125I-Tyr11-Somatostatin-14, SSTR2 CHO-K1 cell membrane. On the procedure: A competitive radioligand binding assay is utilized to measure the binding affinity of the somatostatin analogs of Formula II of the present invention. SSTR2-overexpressing CHO-K1 cells (Hunter Express SSTR2 CHO-K1; DiscoverX) are used in the radioligand competitive binding assay, with ^125I-Tyr^11-Somatostatin-14 (PerkinElmer) as the radioligand. The assay is performed as follows:
SSTR2-overexpressing CHO-K1 cells (from Discover X) were cultured in complete medium (F12 basal medium with 10% FBS and 1% P/S [100 U/mL penicillin and 100 µg/mL streptomycin]) in a 37°C incubator with 5% CO2. When the cell confluency reached 80-90%, the cells were washed twice with pre-cooled PBS. The cells were then scraped off with a cell scraper and transferred to a 50 mL centrifuge tube, followed by centrifugation at 500×g and 4°C for 10 minutes. The supernatant was discarded, and the cell pellet was retained. Cell membrane lysis buffer (containing 25 mM HEPES, 1 mM EDTA, 2 mM MgCl2, and 1× protease inhibitor, pH = 7.4) was added at a ratio of 4 × 10^7 cells/10 mL and placed on ice for 10 minutes. The cells were then disrupted using an IKA disruptor. The operating procedure was 15,000 rpm for 10 seconds, repeated twice. The disrupted cell suspension was centrifuged at 4°C and 650×g for 5 minutes. The supernatant was transferred to a new centrifuge tube and centrifuged at 13,000 rpm and 4°C for 30 minutes. The supernatant was discarded, and the cell membrane pellet was resuspended in 1.6 mL of resuspension buffer, which was cell membrane lysis buffer supplemented with 10% sucrose. The cell membrane lysis buffer was repeatedly aspirated 4 times with a 27-gauge needle to break the DNA. The cell membrane extract was measured for protein concentration using the BCA method and aliquoted and stored at -80°C.
• (1) Dilution of Compound: The assay buffer used contains 50 mM Hepes, 5 mM MgCl2, 1 mM CaCl2, and 0.5% BSA, pH = 7.4, and the buffer is filtered. The assay buffer is kept at 4°C. The ligand solution is serially diluted using an Agilent Bravo. Each test compound is diluted […] in succession. The eight binding concentrations of typical compounds are: 50 nM, 12.5 nM, 3.13 nM, 0.78 nM, 0.20 nM, 0.05 nM, 12.2 pM, and 3.05 pM. The affinity of each concentration is measured twice. Transfer 1 µL of each diluted compound to the corresponding wells of a 96-well V-bottom plate. • (2) Preparation of 125I-SST: The stock solution of 125I-SST was diluted to 3 nM (10×) with binding buffer (containing 50 mM Hepes, 5 mM MgCl2, 1 mM CaCl2, and 0.5% BSA, pH = 7.4, stored at 4°C). Transfer 10 µL of the solution to the corresponding compound well. • (3) Binding Experiment: The extracted cell membrane was diluted to 2.5 µg/90 µL with binding buffer and added to the corresponding wells. The mixture was incubated at 500 rpm on a 25°C shaker for 2 hours. The membrane complex was collected into a 0.5% PEI pre-coated GF/B plate using a Cell Harvester, and rinsed 3 times per well with 200 µL of pre-cooled buffer (4°C) (the same buffer used to dilute the compound). The plate was dried at 37°C for 2 hours. After adding 50 µL of liquid scintillation fluid (MicroScint20, Perkin Elmer) to each well and incubating for 30 minutes, the radioactivity was measured using a Topcount plate reader for 30 seconds per well.
For each compound, its 8-point reading data (2× of 8 readings) were imported into XLfit software and fitted to the sigmoidal curve. The EC50 of the compound for SSTR2 was calculated based on the mathematically optimal sigmoidal dose-response model equation: y−A + ((B−A))/(1 + (((C)/(x)))^D) [formula] where A represents the bottom of the curve, B represents the top of the curve, C represents the relative EC50, D represents the Hill slope, y represents the percentage effect value (% Effect) of the curve fitting, and x represents the molar concentration.

Where [1] appears, read: concentration x calculated from the fit at y = 50% effect, read-out: Absolute EC50.
[2] abbreviates: parameter C of sigmoidal fit, 8 concentrations in duplicate, read-out: Relative EC50.

Take `C[C@@H](O)[C@@H]1NC(=O)[C@H](Cc2cccc(CN)c2)NC(=O)[C@@H](Cc2c[nH]c3ccccc23)NC(=O)[C@H](Cc2ccccc2)NC(=O)[C@@H](NC(=O)[C@H](N)Cc2ccccc2)CSSC[C@@H](C(=O)N[C@H](CO)[C@@H](C)O)NC1=O` [Compound 5] (H-[dF]CF[dW][Phe(3-CH2NH2)]TC[Thr(ol)]; disulfide 2-7): the Bottom was determined as 8.7%, the Top came to 100.0% and the Hill slope amounted to 0.84.

The molecule `C[C@@H](O)[C@H](NC(=O)[C@@H]1CSSC[C@H](NC(=O)[C@@H](Cc2ccccc2)NC(=O)CN2CCN(CC(=O)O)CCN(CC(=O)O)CCN(CC(=O)O)CC2)C(=O)N[C@@H](Cc2ccc(O)cc2)C(=O)N[C@H](Cc2c[nH]c3ccccc23)C(=O)N[C@@H](CCC(C)(C)CN)C(=O)N[C@@H]([C@@H](C)O)C(=O)N1)C(=O)O` [Compound 6] ({DOTA}-[dF]CY[dW][X2]TCT-OH; disulfide 2-7; N-terminus and C-terminus assumed) came in with a Bottom of 13.2%, a Top of 98.3% and a Hill slope of 0.88.

With `C[C@@H](O)[C@@H]1NC(=O)[C@H](CCC(C)(C)CN)NC(=O)[C@@H](Cc2c[nH]c3ccccc23)NC(=O)[C@H](Cc2ccccc2)NC(=O)[C@@H](NC(=O)[C@H](N)Cc2ccccc2)CSSC[C@@H](C(=O)N[C@H](CO)[C@@H](C)O)NC1=O` [Compound 2] (H-[dF]CF[dW][X2]TC[Thr(ol)]; disulfide 2-7), the EC50 runs as follows: under setting [1], 1 nM; under setting [2], 1.2 nM.

Turning to `C[C@@H](O)[C@@H]1NC(=O)[C@H](CCCCCN)NC(=O)[C@@H](Cc2c[nH]c3ccccc23)NC(=O)[C@H](Cc2ccccc2)NC(=O)[C@@H](NC(=O)[C@H](N)Cc2ccccc2)CSSC[C@@H](C(=O)N[C@H](CO)[C@@H](C)O)NC1=O` [Compound 1], the EC50 under setting [1] is 0.74 nM and the EC50 under setting [2] came to 1.3 nM.

`C[C@@H](O)[C@@H]1NC(=O)[C@H](C2CCCC(CN)C2)NC(=O)[C@@H](Cc2c[nH]c3ccccc23)NC(=O)[C@H](Cc2ccccc2)NC(=O)[C@@H](NC(=O)[C@H](N)Cc2ccccc2)CSSC[C@@H](C(=O)N[C@H](CO)[C@@H](C)O)NC1=O` (single isomer, unassigned) [Compound 7p2] returned a Bottom of 10.8%, a Top of 99.5% and a Hill slope of 1.08.

Turning to `CC(CN)CC[C@@H]1NC(=O)[C@@H](Cc2c[nH]c3ccccc23)NC(=O)[C@H](Cc2ccccc2)NC(=O)[C@@H](NC(=O)[C@H](N)Cc2ccccc2)CSSC[C@@H](C(=O)N[C@H](CO)[C@@H](C)O)NC(=O)[C@H]([C@@H](C)O)NC1=O` (some centres unmarked) [Compound 3] (H-[dF]CF[dW][X1]TC[Thr(ol)]; disulfide 2-7), the concentration for a half-maximal effect (EC50) reads like this: under setting [1], 0.25 nM; under setting [2], 0.29 nM.

Molecule `C[C@@H](O)[C@@H]1NC(=O)[C@H](C2CCCC(CN)C2)NC(=O)[C@@H](Cc2c[nH]c3ccccc23)NC(=O)[C@H](Cc2ccccc2)NC(=O)[C@@H](NC(=O)[C@H](N)Cc2ccccc2)CSSC[C@@H](C(=O)N[C@H](CO)[C@@H](C)O)NC1=O` (single isomer, unassigned) [Compound 4] gave a Bottom of 11.7%, a Top of 99.9% and a Hill slope of 1.07. For the same molecule, the EC50 under setting [1] was 0.071 nM. Further, under setting [2], the EC50 is 0.091 nM.
